# In paper PMC5658359, “A potent small-molecule inhibitor of the DCN1-UBC12 interaction that selectively blocks cullin 3 neddylation” (Nature Communications, 2017):
# Entries after “also recorded” stand apart in the source; their conditions may differ.
# Assays:
# KYSE140 = test: Cell viability, WST assay, KYSE140; format: cell-based; conditions: Homo sapiens, KYSE-140, 96 h; KYSE140, t = 4 d
# Procedure: (§1) Supplementary Figure 8: 1
# (§2) […] in a panel of 6 cell lines. (a) The indicated cell lines were treated with MLN4924, 4
# (§3) Cell viability was determined with a WST assay. (b) The 5
# (§4) was determined with a WST assay. 7
# KYSE70 = test: Cell viability, WST assay, KYSE70; format: cell-based; conditions: Homo sapiens, KYSE-70, 96 h; KYSE70, t = 4 d
# Procedure: as §1, §2, §3, §4
# [1] = tested on: neddylation of cullin 1 and other cullins; test: Western blotting of neddylated and un-neddylated cullin 1 and other cullins in cells; format: cell-based
# Text: (§5) Treated cells were lysed by RIPA buffer supplemented with protease and phosphatase inhibitors. The expression level of indicated proteins was examined by immunoblotting analysis. GAPDH was used as the loading control.
# NEDD8 E1 (APP-BP1/Uba3) = target: T1, NEDD8 E1 (APP-BP1/Uba3) (Homo sapiens, UniProt Q8TBC4); test: In vitro UBC12~NEDD8 thioester forming assay; format: biochemical; conditions: DI-591 at concentrations up to 100 µM
# T1 construct: purchased Boston Biochem
# T1 sequence (Q8TBC4 1-463): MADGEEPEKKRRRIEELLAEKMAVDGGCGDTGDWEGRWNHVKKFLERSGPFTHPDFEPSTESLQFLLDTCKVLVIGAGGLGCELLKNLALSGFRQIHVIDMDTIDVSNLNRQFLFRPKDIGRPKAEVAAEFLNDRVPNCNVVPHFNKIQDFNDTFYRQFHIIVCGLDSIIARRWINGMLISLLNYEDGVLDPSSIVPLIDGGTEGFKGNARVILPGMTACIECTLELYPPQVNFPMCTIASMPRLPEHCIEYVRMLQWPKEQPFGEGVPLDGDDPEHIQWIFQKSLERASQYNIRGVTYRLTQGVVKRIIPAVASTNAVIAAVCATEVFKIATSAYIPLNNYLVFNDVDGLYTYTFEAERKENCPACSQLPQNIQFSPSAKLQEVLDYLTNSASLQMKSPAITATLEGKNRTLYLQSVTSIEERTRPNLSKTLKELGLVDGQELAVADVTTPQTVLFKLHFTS
# T1 sequence (Q13564 1-534 partner): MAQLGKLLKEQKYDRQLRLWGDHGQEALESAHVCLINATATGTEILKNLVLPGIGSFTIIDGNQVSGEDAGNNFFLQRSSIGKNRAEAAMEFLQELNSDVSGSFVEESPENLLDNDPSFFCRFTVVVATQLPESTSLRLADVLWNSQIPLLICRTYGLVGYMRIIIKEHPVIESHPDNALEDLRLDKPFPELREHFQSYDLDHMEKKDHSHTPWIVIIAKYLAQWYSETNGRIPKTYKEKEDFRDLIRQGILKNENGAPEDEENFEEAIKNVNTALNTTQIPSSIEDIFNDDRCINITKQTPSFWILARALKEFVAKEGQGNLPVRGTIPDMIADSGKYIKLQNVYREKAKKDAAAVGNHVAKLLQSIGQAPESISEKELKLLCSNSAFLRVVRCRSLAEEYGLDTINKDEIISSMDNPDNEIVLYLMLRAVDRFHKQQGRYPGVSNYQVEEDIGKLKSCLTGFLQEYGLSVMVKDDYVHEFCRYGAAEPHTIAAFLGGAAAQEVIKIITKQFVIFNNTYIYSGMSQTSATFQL
# Procedure: NEDD8, NEDD8 E1 (APP-BP1/Uba3) and UBC12 proteins were purchased from Boston Biochem. NEDD8 (10 μM), NEDD8 E1 (25 nM), and UBC12 (2 μM) were incubated in Tris-HCl (pH 7.4, 50 mM), MgCl2 (5 mM), DTT (0.5 mM) and BSA (0.1 mg/ml), with a tested compound at 25 °C for 10 min. Reactions were initiated by addition of 2 mM ATP (or distilled H2O) and ran for 5 min at 25 °C. 1 M DTT (or distilled H2O) was added to the reaction mixtures which were then kept on ice for 1 min followed by addition of SDS loading buffer (without DTT). The products were separated by SDS–PAGE, visualized by Coomassie stain and quantified by ImageLab (Bio-Rad).
# 1 Supplementa ry Figure 3:
# 3 Supplementary Figure 3. In vitro U BC12~N EDD8 thio ester forming assay.N EDD8,
# 4 NEDD8 E1 (APP -BP 1/Uba3) and UBC12 were purchased from Boston Biochem. 10μ M
# 5 NEDD8, 25nM N EDD8 E1,and 2μ M UBC12 were incubated in 50mM Tris-HCl (pH 7.4), 5mM
# 6 M gC l 2, 0.5mM DTT, and 0.1mg/ml BSA, with indicated compounds at 25℃ for 10min.
# 7 Reactions were initiated by addition o f 2mM ATP (or dH2O) and w ere run for 5min at 25℃ .
# 8 Reaction mixtures were t hen added with 1M DTT (or dH 2O) and kept on ice for 1min followed
# 9 by addition of SDS Loading buffer (without DTT). The products were s eparated b y SDS-PAGE,
# 10 visualized by Coomassie stain and quantified using an ImageLab imager ( Bio-Rad). […]
# p21, Bim, CDT1 = test: Western blotting of cullin 1 and 4A CRL substrates in cells; format: cell-based; conditions: western blot, 24 h
# Text: as §5
# THLE2 = test: Cell viability, WST assay, THLE2; format: cell-based; conditions: Homo sapiens, THLE-2, 96 h; THLE2, t = 4 d
# Procedure: as §1, §2, §3, §4
# neddylation of cullin 3 = test: Western blotting of neddylated and un-neddylated cullin 3 in cells; format: cell-based; conditions: THLE2 liver cells, up to 24 h, MLN4924 0.3 µM
# Text: as §5
# NRF2 = test: Western blotting of NRF2 protein in cells; format: cell-based; conditions: western blot, 24 h
# Text: as §5
# [2] = tested on: THLE2 cells and five additional cancer cell lines; test: Cell viability, WST assay, panel of 6 cell lines; format: cell-based; conditions: Homo sapiens, THLE-2; 6 different cell lines; read-out: IC50, inhibition of cell viability
# DCN1 = DCN1 (Homo sapiens, UniProt Q96GG9); test: Biotinylated protein pull-down assay, KYSE140 cell lysates; format: binding; set-up: endogenous in cells; host or cells: KYSE70; KYSE140
# Chain of DCN1 (Q96GG9 whole entry): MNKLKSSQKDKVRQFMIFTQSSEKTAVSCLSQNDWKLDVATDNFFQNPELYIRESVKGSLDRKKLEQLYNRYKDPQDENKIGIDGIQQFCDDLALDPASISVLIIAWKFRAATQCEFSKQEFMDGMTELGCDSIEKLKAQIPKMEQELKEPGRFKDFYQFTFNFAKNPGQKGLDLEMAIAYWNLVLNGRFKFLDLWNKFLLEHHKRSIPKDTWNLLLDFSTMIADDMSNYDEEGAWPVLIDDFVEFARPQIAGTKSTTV
# Procedure: (§6) Complexes formed between the biotinylated DI inhibitor and its targeted proteins were recovered by incubation with Streptavidin-agarose beads (Thermo Scientific Pierce, Waltham, Massachusetts). DCN1 and DCN2 proteins associated with beads were eluted by heating and detected by immunoblotting.
# GAPDH was used as a loading control. […]
# DCN2 = target: T2, DCN2 (Homo sapiens, UniProt Q6PH85); test: Competitive FP binding assay with probe 46, DCN2
# T2 construct: DCN2 (residues 62–259), DCN3 (residues 86–304), DCN4 (residues 102–292) and DCN5 (residues 47–237); His6-TEV (N, cleaved yes); made in house; host or cells: Rosetta2 cells (E. coli)
# T2 sequence (Q6PH85 62-259): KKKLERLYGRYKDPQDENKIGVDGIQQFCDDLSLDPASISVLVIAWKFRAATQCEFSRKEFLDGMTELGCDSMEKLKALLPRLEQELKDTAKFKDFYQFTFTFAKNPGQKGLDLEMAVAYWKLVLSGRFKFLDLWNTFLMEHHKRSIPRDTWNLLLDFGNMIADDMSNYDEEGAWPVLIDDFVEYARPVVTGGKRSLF
# Procedure: The FP competitive binding experiments were performed to determine the binding affinities of all synthesized DCN1 inhibitors. […] Serial dilutions of DCN1 or DCN2 protein were mixed with the probe (46) to a final volume of 200 μl in the assay buffer (100 mM phosphate buffer, pH = 6.5, with 0.02% Tween-20 and 2% DMSO). The final probe concentration was 5 nM in both DCN1 and DCN2 assays. Plates were incubated at room temperature for 30 min with gentle shaking for equilibrium.
# The IC50 and Ki values of compounds were determined in competitive binding experiments. Mixtures of compounds in DMSO (4 μl) and of pre-incubated protein/probe complex solution (196 μl) in the assay buffer were added into assay plates that were incubated at room temperature for 30 min with gentle shaking. Final concentrations of DCN1 protein and fluorescent probe (46) were 50 and 5 nM, respectively. […] FP values were measured as described above. IC50 values were determined by nonlinear regression fitting of the competition curves using the dose response inhibition equation (four parameters, variable slopes) included in the Prism/GraphPad software. K i values were calculated using the methods described earlier.
# DCN3 = target: T3, DCN3 (Homo sapiens, UniProt Q8IWE4); test: Biochemical assays, binding of 47 to recombinant DCN3 (method not specified); conditions: concentrations up to 10 µM
# T3 construct: DCN2 (residues 62–259), DCN3 (residues 86–304), DCN4 (residues 102–292) and DCN5 (residues 47–237); His6-TEV (N, cleaved yes); made in house; host or cells: Rosetta2 cells (E. coli)
# T3 sequence (Q8IWE4 86-304): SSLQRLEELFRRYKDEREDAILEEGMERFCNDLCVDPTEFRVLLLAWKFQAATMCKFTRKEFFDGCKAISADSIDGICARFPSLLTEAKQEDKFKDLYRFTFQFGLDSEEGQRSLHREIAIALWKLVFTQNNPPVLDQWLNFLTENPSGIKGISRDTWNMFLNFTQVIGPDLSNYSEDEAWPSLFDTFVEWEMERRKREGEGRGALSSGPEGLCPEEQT
# [3] = tested on: cellular DCN1 and DCN2 proteins; test: Biotinylated protein pull-down assay, KYSE70 cell lysates; format: binding
# Procedure: as §6
# DCN4 = target: T4, DCN4 (Homo sapiens, UniProt Q92564); test: Biochemical assays, binding of 47 to recombinant DCN4 (method not specified); conditions: concentrations up to 10 µM
# T4 construct: DCN2 (residues 62–259), DCN3 (residues 86–304), DCN4 (residues 102–292) and DCN5 (residues 47–237); His6-TEV (N, cleaved yes); made in house; host or cells: Rosetta2 cells (E. coli)
# T4 sequence (Q92564 102-292): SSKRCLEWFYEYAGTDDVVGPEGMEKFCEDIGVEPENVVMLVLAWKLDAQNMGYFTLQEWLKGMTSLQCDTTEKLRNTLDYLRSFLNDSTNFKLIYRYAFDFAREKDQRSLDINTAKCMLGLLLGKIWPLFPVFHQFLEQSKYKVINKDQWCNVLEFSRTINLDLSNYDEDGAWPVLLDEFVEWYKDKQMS
# DCN5 = target: T5, DCN5 (Homo sapiens, UniProt Q9BTE7); test: Biochemical assays, binding of 47 to recombinant DCN5 (method not specified); conditions: concentrations up to 10 µM
# T5 construct: DCN2 (residues 62–259), DCN3 (residues 86–304), DCN4 (residues 102–292) and DCN5 (residues 47–237); His6-TEV (N, cleaved yes); made in house; host or cells: Rosetta2 cells (E. coli)
# T5 sequence (Q9BTE7 47-237): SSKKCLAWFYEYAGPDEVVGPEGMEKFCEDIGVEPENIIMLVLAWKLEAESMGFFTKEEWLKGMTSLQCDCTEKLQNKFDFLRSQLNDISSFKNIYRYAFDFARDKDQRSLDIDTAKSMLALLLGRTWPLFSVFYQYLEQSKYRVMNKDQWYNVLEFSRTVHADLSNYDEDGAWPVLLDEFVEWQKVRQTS
compound,measurement,setting,value
NS(=O)(=O)OC[C@@H]1C[C@@H](n2ccc3c(N[C@H]4CCc5ccccc54)ncnc32)C[C@@H]1O [MLN4924],EC50,KYSE140,65.4 nM
same,EC50,KYSE70,356 nM
same,"effect on neddylation of cullin 1, time course (in words)","[1]; THLE2 liver cells, up to 24 h, DI-591 10 µM, MLN4924 0.3 µM",effective
same,concentrations that effectively suppress neddylation of all cullins examined,"[1]; all cullins examined, panel of six cell lines, 24 h",10 to 300 nM
same,"inhibition of UBC12 neddylation (E1 activity), in words",NEDD8 E1 (APP-BP1/Uba3),effectively inhibits
same,"protein levels of p21, Bim and CDT1 (in words)","p21, Bim, CDT1",induces accumulation
same,EC50,THLE2,53.4 nM
same,"effect on neddylation of cullin 3, time course (in words)",neddylation of cullin 3,effective
same,NRF2 protein level (in words),NRF2,induces accumulation; also recorded: much stronger upregulation
same,IC50,[2],50 to 350 nM
CCC(=O)NC(Cc1nc2ccc(C(C)C)cc2s1)C(=O)NC(CNC(=O)C1CCN(CCOCCOCCOCCNC(=O)CCCCC2SCC3NC(=O)NC32)CC1)C1CCCCC1 (stereo not shown) [compound 47],pull-down of DCN1 protein (in words),DCN1,pulls down DCN1 protein
same,Ki,DCN2,3.9 nM
same,binding to recombinant DCN3 (in words),DCN3,no appreciable binding
same,pull-down of cellular DCN1 and DCN2 proteins (in words),[3],efficiently pulls down
same,binding to recombinant DCN4 (in words),DCN4,no appreciable binding
same,binding to recombinant DCN5 (in words),DCN5,no appreciable binding
